Assay results reported in patent US9643964B2, “3-(2-aminopyrimidin-4-yl)-5-(3-hydroxypropynyl)-1H-pyrrolo[2,3-C]pyridine derivatives as NIK inhibitors for the treatment of cancer” (Janssen Pharmaceutica NV, priority 2013, dated 2017).

Key:
[1] = molecular target: T1, Recombinant Human NF-kappaB-Inducing Kinase (NIK/MAP3K14) (Homo sapiens, UniProt Q99558); assay: Biological Assay A2: inhibition of auto-phosphorylation of recombinant human NIK/MAP3K14 (AlphaScreen); type: biochemical; settings: for inhibition at 10 µM: read-out: αscreen Max % Inhib @ 10 μM (Average); for IC50: auto-phosphorylation, averaged over all measurements on all batches, read-out: αscreen IC50
Procedure: Inhibition of Auto-Phosphorylation of Recombinant Human NF-kappaB-Inducing Kinase (NIK/MAP3K14) Activity (AlphaScreen®)
NIK/MAP3K14 auto-phosphorylation activity was measured using the AlphaScreen® (αscreen) format (Perkin Elmer). All compounds tested were dissolved in dimethyl sulfoxide (DMSO) and further dilutions were made in assay buffer. Final DMSO concentration was 1% (v/v) in assays. Assay buffer was 50 mM Tris pH 7.5 containing 1 mM EGTA (ethylene glycol tetraacetic acid), 1 mM DTT (dithiothreitol), 0.1 mM Na3VO4, 5 mM MgCl2, 0.01% Tween 20. Assays were carried out in 384 well Alphaplates (Perkin Elmer). Incubations consisted of compound, 25 microM Adenosine-5′-triphosphate (ATP), and 0.2 nM NIK/MAP3K14. Incubations were initiated by addition of GST-tagged NIK/MAP3K14 enzyme, carried out for 1 h at 25° C. and terminated by addition of stop buffer containing anti-phospho-IKK Ser176/180 antibody. Protein A Acceptor and Glutathione-Donor beads were added before reading using an EnVision® Multilabel Plate Reader (Perkin Elmer). Signal obtained in the wells containing blank samples was subtracted from all other wells and IC50's were determined by fitting a sigmoidal curve to % inhibition of control versus Log10 compound concentration.

[2] = molecular target: T1, Recombinant Human NF-kappaB-Inducing Kinase (NIK/MAP3K14); assay: Biological Assay A: inhibition of recombinant human NIK/MAP3K14 activity (MBP phosphorylation, Mesoscale); type: biochemical; settings: for inhibition at 10 µM: read-out: Biochemical (MSD MBP) Max % Inhib @ 10 μM (Average); for IC50: averaged over all measurements on all batches, read-out: Biochemical (MSD MBP) IC50
Procedure: Inhibition of Recombinant Human NF-kappaB-Inducing Kinase (NIK/MAP3K14) Activity
Assay buffer was 50 mM Tris pH 7.5 containing 1 mM EGTA (ethylene glycol tetraacetic acid), 1 mM DTT (dithiothreitol), 0.1 mM Na3VO4, 5 mM MgCl2, 0.01% Tween 20. Assays were carried out in 384 well Mesoscale high binding plates which had been coated with myelin basic protein (MBP) and blocked with bovine serum albumin to prevent non-specific protein binding. All compounds tested were dissolved in dimethyl sulfoxide (DMSO) and further dilutions were made in assay buffer. Final DMSO concentration was 1% (v/v) in assays. Incubations consisted of compound (1% DMSO in control and blank wells), 25 μM Adenosine-5′-triphosphate (ATP), and 10 nM NIK/MAP3K14 substituting enzyme with buffer in the blank wells. Incubations were carried out for 1 h at 25° C. and were followed by washing and sequential incubation with rabbit anti-phospho-MBP and anti-rabbit Ig Sulfotag antibody before reading bound Sulfotag on a Mesoscale Discovery. Signal obtained in the wells containing blank samples was subtracted from all other wells and IC50's were determined by fitting a sigmoidal curve to % inhibition of control versus Log10 compound concentration.

LP-1 cells = assay: Biological Assay C: antiproliferative activity on LP-1 cells (CellTiter-Glo); type: cell-based, human; settings: Homo sapiens, LP-1, 72 h, 72 hr treatment; averaged values
Procedure: (§1) Determination of Antiproliferative Activity on LP-1, L-363 and JJN-3 Cells
(§2) All compounds tested were dissolved in DMSO and further dilutions were made in culture medium. Final DMSO concentration was 0.3% (v/v) in cell proliferation assays. Viability was assessed using CellTiter-Glo cell viability assay kit (Promega). The human LP-1, L-363 and JJN-3 cells (DSMZ) were cultured in RPMI 1640 medium supplemented with 2 mM L-glutamine, and 10% fetal calf serum (PAA). Cells were routinely kept as suspension cells at 37° C. in a humidified 5% CO2 atmosphere. Cells were passaged at a seeding density of 0.2×10^6/ml twice a week. Cells were seeded in black tissue culture treated 96-well plates (Perkin Elmer). Densities used for plating ranged from 2,000 to 6,000 cells per well in a total volume of 75 μl medium. After twenty four hours, drugs and/or solvents were added (25 μl) to a final volume of 100 μl. Following 72 hr of treatment plates were removed from the incubator and allowed to equilibrate to room temperature for approx 10 min. 100 μl CellTiter-Glo reagent was added to each well that was then covered (Perkin Elmer Topseal) and shaken on plate shaker for 10 min. Luminescence was measured on a HTS Topcount (Perkin Elmer). Within an experiment, the results for each treatment were the mean of 2 replicate wells. For initial screening purposes, compounds were tested using a 9 point dilution curve (serial 1:3 dilutions). For each experiment, controls (containing no drug) and a blank incubation (containing cells read at the time of compound addition) were run in parallel. The blank value was subtracted from all control and sample values. For each sample, the mean value for cell growth (in relative light units) was expressed as a percentage of the mean value for cell growth of the control.

JJN-3 cells = assay: Biological Assay C: antiproliferative activity on JJN-3 cells (CellTiter-Glo); type: cell-based, human; settings: Homo sapiens, JJN-3, 72 h, 72 hr treatment; averaged values
Procedure: as §1, §2

L-363 cells = assay: Biological Assay C: antiproliferative activity on L-363 cells (CellTiter-Glo); type: cell-based, human; settings: Homo sapiens, L-363, 72 h, 72 hr treatment; averaged values
Procedure: as §1, §2

T1 sequence (Q99558 whole entry): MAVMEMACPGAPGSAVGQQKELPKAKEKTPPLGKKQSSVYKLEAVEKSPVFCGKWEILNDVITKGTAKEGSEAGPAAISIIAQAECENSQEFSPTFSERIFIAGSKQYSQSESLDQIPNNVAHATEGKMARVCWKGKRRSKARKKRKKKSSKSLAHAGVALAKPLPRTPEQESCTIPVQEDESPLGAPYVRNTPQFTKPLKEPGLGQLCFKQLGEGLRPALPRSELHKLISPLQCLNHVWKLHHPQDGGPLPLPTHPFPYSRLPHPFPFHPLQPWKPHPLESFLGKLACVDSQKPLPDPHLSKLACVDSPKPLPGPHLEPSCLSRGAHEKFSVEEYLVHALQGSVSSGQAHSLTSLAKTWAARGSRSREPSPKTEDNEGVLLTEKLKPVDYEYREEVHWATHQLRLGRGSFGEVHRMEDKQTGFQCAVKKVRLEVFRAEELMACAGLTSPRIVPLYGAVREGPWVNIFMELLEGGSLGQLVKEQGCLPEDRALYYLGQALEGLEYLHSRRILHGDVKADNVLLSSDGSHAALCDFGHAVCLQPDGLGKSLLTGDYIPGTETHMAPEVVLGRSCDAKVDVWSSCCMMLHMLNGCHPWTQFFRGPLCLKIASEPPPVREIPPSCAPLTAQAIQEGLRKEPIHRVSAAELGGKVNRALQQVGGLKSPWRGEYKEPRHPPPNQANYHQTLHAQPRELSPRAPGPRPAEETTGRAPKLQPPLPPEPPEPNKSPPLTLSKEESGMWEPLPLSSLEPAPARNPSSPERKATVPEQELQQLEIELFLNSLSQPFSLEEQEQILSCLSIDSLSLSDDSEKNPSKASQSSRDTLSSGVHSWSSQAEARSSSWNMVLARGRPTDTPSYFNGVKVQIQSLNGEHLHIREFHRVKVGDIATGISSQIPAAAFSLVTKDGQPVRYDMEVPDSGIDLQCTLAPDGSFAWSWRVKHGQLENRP

| SMILES | inhibition at 10 µM [1] | inhibition at 10 µM [2] | IC50 [1] | IC50 [2] | EC50 (LP-1 cells) | EC50 (JJN-3 cells) | EC50 (L-363 cells) |
| --- | --- | --- | --- | --- | --- | --- | --- |
| COCCn1cc(-c2ccnc(N)n2)c2cc(C#CC(C)(O)C3CNC3)ncc21 (stereo not drawn) [Compound 124] | 33% | 40% | – | – | – | – | – |
| COCCn1cc(-c2ccnc(N)n2)c2cc(C#CC3(O)CNC3)ncc21 [Compound 125] | 24% | 18% | – | – | – | – | – |
| CC(C)(O)C#Cc1cc2c(-c3nc(N)ncc3F)cn(CC3CCOCC3)c2cn1 [Compound 73] | – | – | 71 nM | 56 nM | 1600 nM | 190 nM | 140 nM |
| COCCn1cc(-c2ccnc(N)n2)c2cc(C#CC3(O)CCN(C)CC3)ncc21 [Compound 123] | 27% | 23% | – | – | – | – | – |
| CC(C)(O)Cn1cc(-c2ccnc(N)n2)c2cc(C#CCO)ncc21 [Compound 62] | – | – | 680 nM | 250 nM | 18000 nM | 970 nM | 880 nM |
| CC(C)(O)Cn1cc(-c2ccnc(N)n2)c2cc(C#CC(C)(O)C3(C)COC3)ncc21 (stereo not drawn) [Compound 47] | – | – | 9200 nM | 2900 nM | > 10000 nM | > 10000 nM | > 10000 nM |
| CCN1CCC(n2cc(-c3nc(N)ncc3F)c3cc(C#CC(C)(O)C4CC4)ncc32)C1 (stereo not drawn) [Compound 141] | – | – | 66 nM | – | 320 nM | 96 nM | 56 nM |
| CC(C)N1CCC(n2cc(-c3ccnc(N)n3)c3cc(C#CC(C)(C)O)ncc32)CC1 [Compound 78] | – | – | 130 nM | – | 2000 nM | 580 nM | 410 nM |
| Cn1cc(Cn2cc(-c3nc(N)ncc3F)c3cc(C#CC(C)(O)C4CC4)ncc32)cn1 (stereo not drawn) [Compound 109] | – | – | 120 nM | – | 1200 nM | 460 nM | 360 nM |
| CC(C)n1cc(-c2ccnc(N)n2)c2cc(C#CCO)ncc21 [Compound 13] | – | – | 150 nM | 30 nM | 710 nM | 150 nM | 36 nM |
| CC(C)(O)C#Cc1cc2c(-c3nc(N)ncc3F)cn(C3CN(C4CC4)C3)c2cn1 [Compound 166] | – | – | 76 nM | – | 180 nM | 96 nM | 60 nM |
| CN(C)C(=O)C(C)(O)C#Cc1cc2c(-c3ccnc(N)n3)cn(CC(C)(C)O)c2cn1 (stereo not drawn) [Compound 63] | – | – | 780 nM | 600 nM | – | – | – |
| COCCN1CCC(n2cc(-c3nc(N)ncc3F)c3cc(C#CC(C)(O)C4CC4)ncc32)CC1 (stereo not drawn) [Compound 108] | – | – | 140 nM | – | 640 nM | 270 nM | 280 nM |
| COCCn1cc(-c2ccnc(N)n2)c2cc(C#CC(C)(O)C3CCNCC3)ncc21 (stereo not drawn) [Compound 115] | – | – | 4900 nM | – | > 10000 nM | > 10000 nM | > 10000 nM |
| CCN1CCC(n2cc(-c3nc(N)ncc3F)c3cc(C#CC(C)(O)C4CC4)ncc32)CC1 (stereo not drawn) [Compound 106] | – | – | 95 nM | – | 340 nM | 120 nM | 90 nM |
| CC(C)N1CC(n2cc(-c3ccnc(N)n3)c3cc(C#CC(C)(C)O)ncc32)C1 [Compound 80] | – | – | 76 nM | – | 2500 nM | 310 nM | 160 nM |
| COCCCn1cc(-c2cc(C)nc(N)n2)c2cc(C#CC(C)(C)O)ncc21 [Compound 81] | – | – | 100 nM | – | 28000 nM | 5700 nM | 5900 nM |
| CNc1ncc(F)c(-c2cn(CCCOC)c3cnc(C#CC4(O)CCCC4)cc23)n1 [Compound 89] | – | – | 130 nM | – | 7600 nM | 3700 nM | 4200 nM |
| COCCCn1cc(-c2ccnc(N)n2)c2cc(C#CC(C)(C)O)nc(C)c21 [Compound 84] | – | – | 68 nM | – | 250 nM | 67 nM | 22 nM |
| CN1CC(n2cc(-c3nc(N)ncc3C(F)(F)F)c3cc(C#CC(C)(O)C4CC4)ncc32)C1 (stereo not drawn) [Compound 99] | – | – | 110 nM | – | 2000 nM | 1100 nM | 1100 nM |
| COCCC(C)(O)C#Cc1cc2c(-c3ccnc(N)n3)cn(CC(C)(C)O)c2cn1 (stereo not drawn) [Compound 39] | – | – | 1600 nM | 930 nM | – | – | – |
| CC(O)(C#Cc1cc2c(-c3nc(N)ncc3F)cn(CCCN3CCOCC3)c2cn1)C1CC1 (stereo not drawn) [Compound 105] | – | – | 190 nM | – | 530 nM | 200 nM | 140 nM |

More lines, main results first:

| inhibition at 10 µM [1] | inhibition at 10 µM [2] | IC50 [1] | IC50 [2] | SMILES | EC50 (LP-1 cells) | EC50 (JJN-3 cells) | EC50 (L-363 cells) |
| --- | --- | --- | --- | --- | --- | --- | --- |
| – | – | 38 nM | 6.3 nM | CC(C)(O)C#Cc1cc2c(-c3nc(N)ncc3C(F)(F)F)cn(CC(C)(C)O)c2cn1 [Compound 72] | 7200 nM | 320 nM | 190 nM |
| – | – | 43 nM | 17 nM | CC(C)(O)C#Cc1cc2c(-c3nc(N)ncc3F)cn(C3COC3)c2cn1 [Compound 74] | 1100 nM | 76 nM | 45 nM |
| – | – | 61 nM | 26 nM | CC(C)(O)C#Cc1cc2c(-c3nc(N)ncc3C(F)(F)F)cn(CC3CCOCC3)c2cn1 [Compound 71] | 2600 nM | 550 nM | 520 nM |
| – | – | 6.5 nM | – | CC(O)(C#Cc1cc2c(-c3nc(N)ncc3F)c[nH]c2cn1)C1CC1 (stereo not drawn) [Compound 132] | 410 nM | 77 nM | 30 nM |
| – | – | 47 nM | – | COCCCn1cc(-c2nc(N)ncc2F)c2cc(C#CC(C)(C)O)nc(Cl)c21 [Compound 92] | 86 nM | 54 nM | 32 nM |
| – | – | 17 nM | – | [2H]C([2H])([2H])C(O)(C#Cc1cc2c(-c3nc(N)ncc3F)cn(C3COC3)c2cn1)C1([2H])C([2H])([2H])C1([2H])[2H] (stereo not drawn) [Compound 110] | 580 nM | 170 nM | 140 nM |
| – | – | 47 nM | – | CCN1CCC(n2cc(-c3ccnc(N)n3)c3cc(C#CC(C)(C)O)ncc32)CC1 [Compound 79] | 2000 nM | 160 nM | 61 nM |
| – | – | 35 nM | – | Cc1cnc(N)nc1-c1cn(CC2CCOCC2)c2cnc(C#CC(C)(C)O)cc12 [Compound 82] | 13000 nM | 1100 nM | 890 nM |
| – | – | 28 nM | – | CC(O)(C#Cc1cc2c(-c3nc(N)ncc3F)cn(CC3CCCO3)c2cn1)C1CC1 (stereo not drawn) [Compound 130] | 640 nM | 300 nM | 190 nM |
| – | – | 31 nM | – | Nc1ncc(F)c(-c2cn(C3COC3)c3c(C4CC4)nc(C#CC4(O)CCCC4)cc23)n1 [Compound 94] | 2700 nM | 300 nM | 200 nM |
| – | – | 40 nM | – | CC(O)(C#Cc1cc2c(-c3nc(N)ncc3F)cn(C3CN(C4CC4)C3)c2cn1)CF (stereo not drawn) [Compound 161] | 340 nM | 150 nM | 110 nM |
